From PubChem BioAssay (NCI)
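The compound was tested at five concentrations on cells cultured in 96-well plates, with a 48-hour exposure period. Definition used: TGI = concentration required for complete inhibition of growth.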

What was measured:
Assay in all cases: NCI anticancer screen, dose series, 48 h
[1] = tested on: DMS 273 small cell lung
[2] = tested on: DMS 114 small cell lung
[3] = tested on: ACHN renal
[4] = tested on: XF 498 CNS
[5] = tested on: OVCAR-5 ovarian
[6] = tested on: MALME-3M melanoma
[7] = tested on: CAKI-1 renal
[8] = tested on: IGROV1 ovarian
[9] = tested on: OVCAR-3 ovarian
[10] = tested on: 786-0 renal
[11] = tested on: EKVX NSCLC
[12] = tested on: RXF 393 renal
[13] = tested on: UACC-257 melanoma
[14] = tested on: SF-539 CNS
[15] = tested on: UO-31 renal
[16] = tested on: OVCAR-4 ovarian
[17] = tested on: NCI-H226 lung
[18] = tested on: SF-295 CNS
[19] = tested on: NCI-H460 lung
[20] = tested on: LOX IMVI melanoma
[21] = tested on: MOLT-4 leukemia
[22] = tested on: RPMI-8226 leukemia
[23] = tested on: SN12C renal
[24] = tested on: SW-620 colon
[25] = tested on: HCC-2998 colon
[26] = tested on: SK-MEL-28 melanoma
[27] = tested on: HCT-116 colon
[28] = tested on: OVCAR-8 ovarian
[29] = tested on: SF-268 CNS
[30] = tested on: A498 renal
[31] = tested on: SR leukemia
[32] = tested on: K-562 leukemia
[33] = tested on: KM20L2 colon
[34] = tested on: SK-MEL-2 melanoma
[35] = tested on: M19-MEL melanoma
[36] = tested on: TK-10 renal
[37] = tested on: HCT-15 colon
[38] = tested on: HT29 colon
[39] = tested on: HL-60(TB) leukemia
[40] = tested on: NCI-H23 lung
[41] = tested on: M14 melanoma
[42] = tested on: SNB-78 CNS
[43] = tested on: A549 NSCLC
[44] = tested on: SK-MEL-5 melanoma
[45] = tested on: SNB-19 CNS
[46] = tested on: COLO 205 colon
[47] = tested on: SK-OV-3 ovarian
[48] = tested on: HOP-62 NSCLC
[49] = tested on: U251 CNS
[50] = tested on: SNB-75 CNS
[51] = tested on: KM12 colon
[52] = tested on: UACC-62 melanoma
[53] = tested on: DLD-1 colon
[54] = tested on: NCI-H522 lung
[55] = tested on: LXFL 529 NSCLC
[56] = tested on: CCRF-CEM leukemia

FC(F)(F)c1cccc(C=NC23CC4CC(CC(C4)C2)C3)c1
TGI [1]: > 100 µM | TGI [2]: > 100 µM | TGI [3]: > 100 µM | TGI [4]: > 100 µM | TGI [5]: > 100 µM | TGI [6]: > 100 µM | TGI [7]: > 100 µM | TGI [8]: > 100 µM | TGI [9]: > 100 µM | TGI [10]: > 100 µM | TGI [11]: > 100 µM | TGI [12]: > 100 µM | TGI [13]: > 100 µM | TGI [14]: > 100 µM | TGI [15]: > 100 µM | TGI [16]: > 100 µM | TGI [17]: > 100 µM | TGI [18]: > 100 µM | TGI [19]: > 100 µM | TGI [20]: > 100 µM | TGI [21]: > 100 µM | TGI [22]: > 100 µM | TGI [23]: > 100 µM | TGI [24]: > 100 µM | TGI [25]: > 100 µM | TGI [26]: > 100 µM | TGI [27]: > 100 µM | TGI [28]: > 100 µM | TGI [29]: > 100 µM | TGI [30]: > 100 µM | TGI [31]: > 100 µM | TGI [32]: > 100 µM | TGI [33]: > 100 µM | TGI [34]: > 100 µM | TGI [35]: > 100 µM | TGI [36]: > 100 µM | TGI [37]: > 100 µM | TGI [38]: > 100 µM | TGI [39]: > 100 µM | TGI [40]: > 100 µM | TGI [41]: > 100 µM | TGI [42]: > 100 µM | TGI [43]: > 100 µM | TGI [44]: > 100 µM | TGI [45]: > 100 µM | TGI [46]: > 100 µM | TGI [47]: > 100 µM | TGI [48]: > 100 µM | TGI [49]: > 100 µM | TGI [50]: > 100 µM | TGI [51]: > 100 µM

COc1ccccc1N=NC(C(=O)c1ccccc1)C(=O)c1ccccc1
TGI [1]: 57.9 µM | TGI [2]: 40.5 µM | TGI [3]: 83.6 µM | TGI [4]: 53.5 µM | TGI [5]: 71.5 µM | TGI [6]: 88.9 µM | TGI [7]: 77.3 µM | TGI [8]: > 100 µM | TGI [9]: > 100 µM | TGI [10]: > 100 µM | TGI [11]: 67.8 µM | TGI [13]: 89.2 µM | TGI [14]: > 100 µM | TGI [15]: 37.3 µM | TGI [16]: 74.2 µM | TGI [17]: 35.9 µM | TGI [18]: 87.6 µM | TGI [52]: 52.3 µM | TGI [19]: 82.2 µM | TGI [20]: 51.1 µM | TGI [21]: 60.4 µM | TGI [22]: 58.7 µM | TGI [23]: 53.1 µM | TGI [24]: > 100 µM | TGI [53]: 54.9 µM | TGI [25]: 70.4 µM | TGI [26]: > 100 µM | TGI [27]: 28.6 µM | TGI [28]: > 100 µM | TGI [29]: > 100 µM | TGI [30]: > 100 µM | TGI [32]: > 100 µM | TGI [33]: 58.2 µM | TGI [34]: 53.4 µM | TGI [35]: 41.3 µM | TGI [36]: > 100 µM | TGI [37]: 47.6 µM | TGI [38]: 82.3 µM | TGI [39]: 33.7 µM | TGI [40]: 68.1 µM | TGI [54]: 47 µM | TGI [41]: 31.6 µM | TGI [43]: 78.3 µM | TGI [55]: > 100 µM | TGI [44]: 54.5 µM | TGI [45]: 70.1 µM | TGI [56]: 60 µM | TGI [46]: > 100 µM | TGI [47]: 89.4 µM | TGI [48]: 52.1 µM | TGI [49]: > 100 µM | TGI [50]: 82.3 µM | TGI [51]: > 100 µM
